According to US8933015B2, “Macrocyclic inhibitors of flaviviridae viruses” (Gilead Sciences, Inc., priority 2010, dated 2015):
Like-named read-outs stand apart in the source and are kept apart here.

Experiments:
[1] = rcm bond, 22-membered ring
[2] = system: human hepatoma Huh-7 cell line harboring a HCV replicon; experiment: HCV replicon assay (inhibition of viral replication, luciferase); assay type: cell-based; details: Hepatitis C virus; for EC50: Huh-7, 72 h; for inhibition at 1 µM: Huh-7, read-out: % inhibition at 1 μM
Method: The anti-HCV activity of the compounds of this invention was tested in a human hepatoma Huh-7 cell line harboring a HCV replicon. The assay comprised the following steps:
Step 1: Compound Preparation and Serial Dilution
Serial dilution was performed in 100% DMSO in a 384-well plate. A solution containing a compound at 225-fold concentration of the starting final serial dilution concentration was prepared in 100% DMSO and 15 uL added to the pre-specified wells in column 3 or 13 of a polypropylene 384-well plate. The rest of the 384-well plate was filled with 10 uL 100% DMSO except for columns 23 and 24, where 10 uL of 500 uM a HCV protease inhibitor (ITMN-191) in 100% DMSO was added. […] The plate was then placed on a Biomek FX Workstation to start the serial dilution. The serial dilution was performed for ten cycles of 3-fold dilution from column 3 to 12 or from column 13 to 22.
Step 2: Cell Culture Plate Preparation and Compound Addition
To each well of a black polypropylene 384-well plate, 90 μL of cell media containing 1600 suspended Huh-7 HCV replicon cells was added with a Biotek uFlow Workstation. A volume of 0.4 μL of the compound solution was transferred from the serial dilution plate to the cell culture plate on a Biomek FX Workstation. The DMSO concentration in the final assay condition was 0.44%. The plates were incubated for 3 days at 37° C. with 5% CO2 and 85% humidity.
Step 3: Detection of Cytotoxicity and Inhibition of Viral Replication
b) Assessment of inhibition of viral replication: The calcein-PBS solution in the 384-well cell culture plate was aspirated with a Biotek EL405 plate-washer. A volume of 20 μL of Dual-Glo luciferase buffer (Promega, Dual-Glo Luciferase Assay Reagent, cat. #E298B) was added to each well of the plate with a Biotek uFlow Workstation. The plate was incubated for 10 minutes at room temperature. A volume of 20 μL of a solution containing 1:100 mixture of Dual-Glo Stop & Glo substrate (Promega, Dual-Glo Luciferase Assay Reagent, cat. #E313B) and Dual-Glo Stop & Glo buffer (Promega, Dual-Glo Luciferase Assay Reagent, cat. #E314B) was then added to each well of the plate with a Biotek uFlow Workstation. The plate was incubated at room temperature for 10 minutes before the luminescence signal was measured with a Perkin Elmer Envision Plate Reader.
The percent cytotoxicity was determined by calcein AM conversion to fluorescent product. The average fluorescent signal from the DMSO control wells were defined as 100% nontoxic. The individual fluorescent signal from testing compound treated well was divided by the average signal from DMSO control wells and then multiplied by 100% to get the percent viability. The percent anti-HCV replication activity was determined by the luminescence signal from the testing well compared to DMSO controls wells. The background signal was determined by the average luminescence signal from the HCV protease inhibitor treated wells and was subtracted from the signal from the testing wells as well as the DMSO control wells.
Where b is Hill's coefficient. See, for reference, Hill, A. V., The Possible Effects of the Aggregation of the Molecules of Hemoglobin on its Dissociation Curves, J. Physiol. 40: iv-vii. (1910).
% inhibition values at a specific concentration, for example 2 μM, can also be derived from the formula above.
The EC50's are presented as a % inhibition.

[3] = molecular target: cyclophilin A (Homo sapiens, UniProt P62937); experiment: Cyclophilin A TR-FRET competitive binding assay; details: inhibition of cyclophilin binding; 5 nM CypA, 150 nM CsA-Cy5
Method: Cyclophilin A TR-FRET Competitive Binding Assay
Inhibitor potency was measured using a competitive binding assay with a time-resolved fluorescence resonance energy transfer (TR-FRET) readout. […] The total volume of the assay solution was 100 μL. […] An IC50 value was calculated using a four-parameter logistic fit.

Chain of cyclophilin A (P62937 whole entry, species assumed): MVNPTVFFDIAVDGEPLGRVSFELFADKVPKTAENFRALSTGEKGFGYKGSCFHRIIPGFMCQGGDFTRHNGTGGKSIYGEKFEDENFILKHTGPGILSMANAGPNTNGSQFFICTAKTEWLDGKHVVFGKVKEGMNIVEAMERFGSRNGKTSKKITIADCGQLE

Row | SMILES | EC50 [2] [nM] | inhibition at 1 µM [2] [%] | IC50 [3] [nM] | also measured
1 | CCO[C@@H]1CC/C=C/c2cccc(c2)COC(=O)[C@@H]2CCCN(N2)C(=O)[C@H](Cc2cccc(O[Si](C)(C)C(C)(C)C)c2)NC(=O)[C@H](C(C)C)NC(=O)[C@@H]1C |  |  |  | ring closure, isolated yield ([1]; from C=CCC[C@@H](OCC)[C@@H](C)C(=O)N[C@H](C(=O)N[C@@H](Cc1cccc(O[Si](C)(C)C(C)(C)C)c1)C(=O)N1CCC[C@@H](C(=O)OCc2cccc(C=C)c2)N1)C(C)C, Hoveyda-Grubbs II, DCE, 2.53 mM, 83.0 °C, 1.5 h): 66%
2 | CO[C@@H]1CC/C=C/CCCCOC(=O)[C@@H]2CCCN(N2)C(=O)[C@H](Cc2cccc(O[Si](C)(C)C(C)(C)C)c2)NC(=O)[C@H](C(C)C)NC(=O)[C@@H]1C |  |  |  | ring closure, isolated yield ([1]; from C=CCCCCOC(=O)[C@@H]1CCCN(C(=O)[C@H](Cc2cccc(O[Si](C)(C)C(C)(C)C)c2)NC(=O)[C@@H](NC(=O)[C@H](C)[C@@H](CCC=C)OC)C(C)C)N1, Grubbs II, DCE, 3.02 mM, 83.0 °C, 3.0 h): 48%
3 | CO[C@@H]1CC/C=C/c2ccnc(c2)COC(=O)[C@@H]2CCCN(N2)C(=O)[C@H](Cc2cccc(O[Si](C)(C)C(C)(C)C)c2)NC(=O)[C@H](C(C)C)NC(=O)[C@@H]1C |  |  |  | ring closure, isolated yield ([1]; from C=CCC[C@@H](OC)[C@@H](C)C(=O)N[C@H](C(=O)N[C@@H](Cc1cccc(O[Si](C)(C)C(C)(C)C)c1)C(=O)N1CCC[C@@H](C(=O)OCc2cc(C=C)ccn2)N1)C(C)C, Hoveyda-Grubbs II, DCE, 2.69 mM, 80.0 °C, 3.0 h): 61%
4 | CO[C@@H]1CCC=Cc2ccc3c(c2)[C@@H](CC3)OC(=O)[C@@H]2CCCN(N2)C(=O)[C@H](Cc2cccc(O[Si](C)(C)C(C)(C)C)c2)NC(=O)[C@H](C(C)C)NC(=O)[C@@H]1C |  |  |  | ring closure, isolated yield ([1]; from C=CCC[C@@H](OC)[C@@H](C)C(=O)N[C@H](C(=O)N[C@@H](Cc1cccc(O[Si](C)(C)C(C)(C)C)c1)C(=O)N1CCC[C@@H](C(=O)O[C@@H]2CCc3ccc(C=C)cc32)N1)C(C)C, Hoveyda-Grubbs II (two portions), DCE, 3.16 mM, 83.0 °C, 6.0 h, 2 steps): 14%
5 | CO[C@@H]1CCC=Cc2cccc(c2)COC(=O)[C@@H]2CCCN(N2)C(=O)[C@H](Cc2cccc(O[Si](C)(C)C(C)(C)C)c2)NC(=O)[C@H](C(C)C)NC(=O)[C@@H]1C |  |  |  | ring closure, isolated yield ([1]; from C=CCC[C@@H](OC)[C@@H](C)C(=O)N[C@H](C(=O)N[C@@H](Cc1cccc(O[Si](C)(C)C(C)(C)C)c1)C(=O)N1CCC[C@@H](C(=O)OCc2cccc(C=C)c2)N1)C(C)C, Grubbs I, DCM, 3.0 mM, 40.0 °C, 16.0 h): 75%
6 | CO[C@@H]1CCC=Cc2cccc(c2)[C@@H](C)NC(=O)[C@@H]2CCCN(N2)C(=O)[C@H](Cc2cccc(O[Si](C)(C)C(C)(C)C)c2)NC(=O)[C@H](C(C)C)NC(=O)[C@@H]1C |  |  |  | ring closure, isolated yield ([1]; from C=CCC[C@@H](OC)[C@@H](C)C(=O)N[C@H](C(=O)N[C@@H](Cc1cccc(O[Si](C)(C)C(C)(C)C)c1)C(=O)N1CCC[C@@H](C(=O)N[C@H](C)c2cccc(C=C)c2)N1)C(C)C, Hoveyda-Grubbs II, DCE, 2.59 mM, 80.0 °C, 3.0 h): 22%
7 | CO[C@@H]1CCC=Cc2cccc(c2)[C@@H](C)OC(=O)[C@@H]2CCCN(N2)C(=O)[C@H](Cc2cccc(O[Si](C)(C)C(C)(C)C)c2)NC(=O)[C@H](C(C)C)NC(=O)[C@@H]1C |  |  |  | ring closure, isolated yield ([1]; from C=CCC[C@@H](OC)[C@@H](C)C(=O)N[C@H](C(=O)N[C@@H](Cc1cccc(O[Si](C)(C)C(C)(C)C)c1)C(=O)N1CCC[C@@H](C(=O)O[C@H](C)c2cccc(C=C)c2)N1)C(C)C, Hoveyda-Grubbs II, DCE, 2.68 mM, 83.0 °C, 3.0 h): 70%
8 | CO[C@@H]1[C@@H](C)[C@@H](OC)C=CC=CC[C@@H](C)OC(=O)[C@@H]2CCCN(N2)C(=O)[C@H](Cc2cccc(O[Si](C)(C)C(C)(C)C)c2)NC(=O)[C@H](C(C)C)NC(=O)[C@@H]1C |  |  |  | ring closure, isolated yield ([1]; from C=C/C=C\[C@H](OC)[C@H](C)[C@@H](OC)[C@@H](C)C(=O)N[C@H](C(=O)N[C@@H](Cc1cccc(O[Si](C)(C)C(C)(C)C)c1)C(=O)N1CCC[C@@H](C(=O)O[C@H](C)CC=C)N1)C(C)C, Grubbs I (two portions), DCM, 2.0 mM, 40.0 °C, 42.0 h): 42%
9 | COc1ccc(C[C@@H]2NC(=O)[C@H](C)[C@H](OC)[C@@H](C)[C@@H](OC)C=CC=CCCOC(=O)[C@@H]3CCCN(N3)C(=O)[C@H](Cc3cccc(O[Si](C)(C)C(C)(C)C)c3)NC2=O)cc1 |  |  |  | ring closure, isolated yield ([1]; from C=C/C=C\[C@H](OC)[C@H](C)[C@@H](OC)[C@@H](C)C(=O)N[C@@H](Cc1ccc(OC)cc1)C(=O)N[C@@H](Cc1cccc(O[Si](C)(C)C(C)(C)C)c1)C(=O)N1CCC[C@@H](C(=O)OCCC=C)N1, Grubbs I, DCM, 2.52 mM, 40.0 °C, 24.0 h): 34%
10 | COc1ccc(C[C@@H]2NC(=O)[C@H](C)[C@H](OC)[C@@H](C)[C@@H](OC)/C=C/C=C/CCOC(=O)[C@@H]3CCCN(N3)C(=O)[C@H](Cc3cccc(O)c3)NC2=O)cc1 [Compound 21, (13 E,15E)-(3S,6S,9R,10R,11S,12S,21S)-3-(3-Hydroxy-benzyl)-10,12-dimethoxy-6-(4-methoxy-benzyl)-9,11-dimethyl-19-oxa-1,4,7,25-tetraazabicyclo[19.3.1]pentacosa-13,15-diene-2,5,8,20-tetraone] | 1100 to 10000 | 18 | 101 to 1000 | 
11 | CO[C@@H]1CC/C=C/c2cccc(c2)[C@@H](C)OC(=O)[C@@H]2CCCN(N2)C(=O)[C@H](Cc2cccc(O)c2)NC(=O)[C@H](C(C)C)NC(=O)C1 [Compound 22, (E)-(2R,5S,11S,14S,18R)-11-(3-Hydroxy-benzyl)-14-isopropyl-18-methoxy-2-methyl-3-oxa-9,12,15,28-tetraaza-tricyclo[21.3.1.1*5,9*]octacosa-1(26),21,23(27),24-tetraene-4,10,13,16-tetraone] | < 1000 | 70 | < 100 | 
12 | CO[C@@H]1CC/C=C/CCCCOC(=O)[C@@H]2CCCN(N2)C(=O)[C@H](Cc2cccc(O)c2)NC(=O)[C@H](C(C)C)NC(=O)[C@@H]1C [Compound 23, (E)-(3S,6S,9R,10R,21S)-3-(3-Hydroxy-benzyl)-6-isopropyl-10-methoxy-9-methyl-19-oxa-1,4,7,25-tetraaza-bicyclo[19.3.1]pentacos-13-ene-2,5,8,20-tetraone] | < 1000 | 41 | 101 to 1000 | 
13 | CCO[C@@H]1CC/C=C/c2cccc(c2)COC(=O)[C@@H]2CCCN(N2)C(=O)[C@H](Cc2cccc(O)c2)NC(=O)[C@H](C(C)C)NC(=O)[C@@H]1C [Compound 24, (E)-(5S,11S,14S,17R,18R)-18-Ethoxy-11-(3-hydroxy-benzyl)-14-isopropyl-17-methyl-3-oxa-9,12,15,28-tetraaza-tricyclo[21.3.1.1*5,9*]octacosa-1(26),21,23(27),24-tetraene-4,10,13,16-tetraone] | < 1000 | 65 | < 100 | 
14 | CO[C@@H]1[C@@H](C)[C@@H](OC)CCc2cccc(c2)CNC(=O)[C@@H]2CCCN(N2)C(=O)[C@H](Cc2cccc(O)c2)NC(=O)[C@H](C(C)C)NC(=O)[C@@H]1C [Compound 25, (5S,11S,14S,17R,18R,19S,20S)-11-(3-Hydroxy-benzyl)-14-isopropyl-18,20-dimethoxy-17,19-dimethyl-3,9,12,15,28-pentaaza-tricyclo[21.3.1.1*5,9*]octacosa-1(27),23,25-triene-4,10,13,16-tetraone] | 1100 to 10000 | 34 | 101 to 1000 | 
15 | CO[C@@H]1CC/C=C/C2=CC=C(COC(=O)[C@@H]3CCCN(N3)C(=O)[C@H](Cc3cccc(O)c3)NC(=O)[C@H](C(C)C)NC(=O)[C@@H]1C)S2 [Compound 26, (E)-(1S,13R,14R,17S,20S)-20-(3-Hydroxy-benzyl)-17-isopropyl-13-methoxy-14-methyl-3-oxa-27-thia-16,19,22,26-tetraaza-tricyclo[20.3.1.1*5,8*]heptacosa-5,7,9-triene-2,15,18,21-tetraone] | 10100 to 100000 | 9 | 101 to 1000 | 
